According to patent publication US12390447B2, “Sirtuin 6 protein deacylase (SIRT6) activators” (Wisconsin Alumni Research Foundation, priority 2019, dated 2025):

Tests used:
SIRT2 = target: T1, SIRT2 (Homo sapiens, UniProt Q8IXJ6); assay: SIRT2 deacetylase activity against H3K9ac peptide; type: biochemical
T1 sequence (Q8IXJ6 1-389): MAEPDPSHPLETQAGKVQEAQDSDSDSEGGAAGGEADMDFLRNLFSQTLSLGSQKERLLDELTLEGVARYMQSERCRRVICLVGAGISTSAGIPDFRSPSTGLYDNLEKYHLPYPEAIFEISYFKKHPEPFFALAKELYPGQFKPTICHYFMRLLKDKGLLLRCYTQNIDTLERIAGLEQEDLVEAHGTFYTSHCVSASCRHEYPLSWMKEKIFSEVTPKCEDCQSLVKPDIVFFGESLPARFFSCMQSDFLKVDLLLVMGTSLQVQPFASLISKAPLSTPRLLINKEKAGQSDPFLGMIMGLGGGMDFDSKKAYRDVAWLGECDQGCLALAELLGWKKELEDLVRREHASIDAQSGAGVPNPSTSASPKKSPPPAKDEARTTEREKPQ
Method: FIGS. 1A-F illustrate the identification of novel SIRT6 activators. (1A) Compound libraries BML-2803, BML-2800, and an additional set of 178 molecules were screened at 100 μM for their ability to stimulate SIRT6 (1 μM) deacetylation of H3K9ac peptide (20 μM) in the presence of 0.5 mM NAD^+. SIRT6 activity was measured by HPLC quantification of H3K9ac and deacetylated product (inset) and fold activations relative to DMSO control were determined and compiled. (1B) Fold-activation of SIRT6 (1 μM) determined in the presence of either 0-400 μM CL4, 0-150 μM TTNPB, 0-100 μM Lysophosphatidic acid (LPA), or 0-200 μM linoleoylglycine (LGly). Maximum fold-activation and EC50 determined by sigmoidal curve fit. […] Constants Km, H3K9ac and kcat were determined by fitting data to Michaelis-Menten equation. (1D) Fold-activations of SIRT1 (0.1 μM), SIRT2 (0.2 μM), SIRT3 (1 μM), SIRT5 (2 μM), and SIRT6 (1 μM) determined in the presence of CL4 (100 μM), TTNPB (50 μM), and LPA (50 μM) relative to DMSO control against 20 μM H3K9ac peptide and 0.5 mM NAD^+. […]
All sirtuin deacylation assays were carried out at 37° C. in 20 mM potassium phosphate pH 7.5 with 0.5 mM NAD^+, 10% DMSO, and 20 μM H3K9ac or H3K9myr peptides, unless otherwise noted in legend, and quenched by the addition of 2% TFA final. […] The product and substrate peaks were quantified and ratio of these allowed for quantification of product formation. […]

SIRT6 = SIRT6 (Homo sapiens, UniProt Q8N6T7); assay: SIRT6 deacetylation of H3K9ac peptide, fold-activation versus activator concentration; type: biochemical; settings: for EC50: H3K9ac peptide 20 μM
SIRT6, sequence (Q8N6T7 whole entry): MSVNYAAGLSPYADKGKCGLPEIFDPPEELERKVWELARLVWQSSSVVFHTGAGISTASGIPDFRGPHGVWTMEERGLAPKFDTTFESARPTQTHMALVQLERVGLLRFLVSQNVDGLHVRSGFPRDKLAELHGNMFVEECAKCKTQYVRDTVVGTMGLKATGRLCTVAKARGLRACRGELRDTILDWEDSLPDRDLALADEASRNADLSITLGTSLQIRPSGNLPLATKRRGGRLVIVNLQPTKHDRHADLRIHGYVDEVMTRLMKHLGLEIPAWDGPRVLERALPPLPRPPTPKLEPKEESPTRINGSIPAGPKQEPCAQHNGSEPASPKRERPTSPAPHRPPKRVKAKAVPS
Method: (1A) Compound libraries BML-2803, BML-2800, and an additional set of 178 molecules were screened at 100 μM for their ability to stimulate SIRT6 (1 μM) deacetylation of H3K9ac peptide (20 μM) in the presence of 0.5 mM NAD^+. SIRT6 activity was measured by HPLC quantification of H3K9ac and deacetylated product (inset) and fold activations relative to DMSO control were determined and compiled. (1B) Fold-activation of SIRT6 (1 μM) determined in the presence of either 0-400 μM CL4, 0-150 μM TTNPB, 0-100 μM Lysophosphatidic acid (LPA), or 0-200 μM linoleoylglycine (LGly). Maximum fold-activation and EC50 determined by sigmoidal curve fit. (1C) Steady-state kinetic analysis of SIRT6 (1 μM) deacetylation was conducted with 0-250 μM H3K9ac peptide in the presence of 100 μM CL4, 50 μM TTNPB, 50 μM LPA, or 50 μM LGly. Constants Km, H3K9ac and kcat were determined by fitting data to Michaelis-Menten equation. (1D) Fold-activations of SIRT1 (0.1 μM), SIRT2 (0.2 μM), SIRT3 (1 μM), SIRT5 (2 μM), and SIRT6 (1 μM) determined in the presence of CL4 (100 μM), TTNPB (50 μM), and LPA (50 μM) relative to DMSO control against 20 μM H3K9ac peptide and 0.5 mM NAD^+. Mean values reported with error bars representing standard deviation of at least three replicates.
All sirtuin deacylation assays were carried out at 37° C. in 20 mM potassium phosphate pH 7.5 with 0.5 mM NAD^+, 10% DMSO, and 20 μM H3K9ac or H3K9myr peptides, unless otherwise noted in legend, and quenched by the addition of 2% TFA final. Steady-state reactions were constrained to less than 20% substrate turnover to prevent product inhibition. A variety of times were required to monitor SIRT6 deacetylation (2-60 minutes) under this restraint given the ability to strongly activate catalysis. In these cases, specific activities were determined and either reported as is or as fold-activation of specific activity. Deacylation reactions were analyzed by reversed phase high-performance liquid chromatography on a Kinetex C18 column (100 Å, 100×4.6 mm, 2.6 μm, Phenomenex) by monitoring the formation of the deacylated product at 214 nm. Deacetylation reactions were analyzed using a gradient of 33-100% B (30% acetonitrile with 0.05% TFA) in 8 min at 1.6 mL min^−1. Demyristoylation reactions were analyzed using a gradient of 3 to 100% B (acetonitrile with 0.05% TFA) in 10 min at 1.6 mL min^−1. The product and substrate peaks were quantified and ratio of these allowed for quantification of product formation. […]

[1] = SIRT6 1 μM, 0.5 mM NAD+, sigmoidal curve fit

Compound | specificity for SIRT6 over SIRT2 (SIRT2; CL4 100 μM, TTNPB 50 μM, LPA 50 μM) | concentration required to stimulate 4-fold activation of SIRT6 (SIRT6; SIRT6 1 μM, H3K9ac 20 μM, 0.5 mM NAD+) | EC50 (SIRT6; [1]) | SIRT2 deacetylase activity at high activator concentration (SIRT2; 400 μM compound) | SIRT6 deacetylase activity at high activator concentration (SIRT6; 400 μM compound) | increased potency over CL-4 (SIRT6; by concentration required for 4-fold activation of SIRT6 deacetylase activity) | FAmax (maximum fold-activation) (SIRT6; SIRT6 1 μM, sigmoidal curve fit)
O=C(O)c1ccc2c(c1)C(=O)N(c1ccc(NC(=O)c3ccc(Cl)cc3Cl)c(Cl)c1)C2=O [CL-4, 2-(3-chloro-4-(2,4-dichlorobenzamido)phenyl)-1,3-dioxoisoindoline-5-carboxylic acid] | greater than 19 fold | 35 µM | 97 ± 2 µM |  |  |  | 
O=C(O)c1ccc2c(c1)C(=O)N(c1ccc(N(C(=O)c3c(Cl)cc(Cl)cc3Cl)C(=O)c3c(Cl)cc(Cl)cc3Cl)c(Cl)c1)C2=O [CL-5D, 2-(3-chloro-4-(2,4,6-trichloro-N-(2,4,6-trichlorobenzoyl)benzamido)phenyl)-1,3-dioxoisoindoline-5-carboxylic acid] |  |  |  | inhibited | inhibited | 7 fold | 
CCCCC/C=C\C/C=C\CCCCCCCC(=O)NCC(=O)O [N-Linoleoylglycine, linoleoyl-glycine, reference compound] |  |  | 88 ± 4 µM |  |  |  | 17 ± 0.8 fold
